By IC50 is commonly meant the concentration that gives 50% inhibition. Lower therefore signals higher potency.

In patent US9409882B2, “Pyridine derivatives” (Hoffmann-La Roche Inc., priority 2012, dated 2016) one finds IC50 data, which are given here for 6 molecules.

One test addresses human Cathepsin S (Homo sapiens (Human), UniProt P25774). Briefly: Cathepsin enzyme inhibition assay (fluorogenic peptide substrate), human Cat S. The format is biochemical. Conditions: human Cat S 1 nM, substrate Z-Val-Val-Arg-AMC 20 μM, pH 6.5. On the procedure: (§1) Cathepsin Enzyme Inhibition Assay
(§2) Enzyme activity is measured by observing the increase in fluorescence intensity caused by cleavage of a peptide substrate containing a fluorophore whose emission is quenched in the intact peptide.
(§3) Assay buffer: 100 mM potassium phosphate pH 6.5, EDTA-Na 5 mM, Triton X-100 0.001%, DTT 5 mM.
(§4) Enzymes (all at 1 nM): human and mouse Cathepsin S, Cat K, Cat B, Cat L.
(§5) Substrate (20 μM): Z-Val-Val-Arg-AMC, except for Cat K which uses Z-Leu-Arg-AMC (both from Bachem).
(§6) AMC=7-Amino-4-Methyl-Coumarin.
(§7) Excitation 360 nm, Emission 465 nm.
(§8) Enzyme is added to the substance dilutions in 96-well microtitre plates and the reaction is started with substrate. […] IC50 are calculated by standard methods.
(§9) Inhibition of human Cat S, mouse Cat S, human Cat K, human Cat B, human Cat L and mouse Cat L have been measured separately.

Another test deals with human Cat L (Homo sapiens (Human), UniProt P07711). Briefly: Cathepsin enzyme inhibition assay (fluorogenic peptide substrate), human Cat L. Type of test: biochemical. Conditions: human Cat L 1 nM, substrate Z-Val-Val-Arg-AMC 20 μM, pH 6.5. On the procedure:
as §1, §2, §3, §4, §5, §6, §7, §8, §9

Sequence of human Cathepsin S (P25774 115-331): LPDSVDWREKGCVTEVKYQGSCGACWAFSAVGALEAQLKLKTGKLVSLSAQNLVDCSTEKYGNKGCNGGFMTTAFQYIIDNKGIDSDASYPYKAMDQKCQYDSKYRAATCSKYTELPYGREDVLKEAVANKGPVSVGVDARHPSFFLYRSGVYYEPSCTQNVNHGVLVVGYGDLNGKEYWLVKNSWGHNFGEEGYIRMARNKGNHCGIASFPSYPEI
Sequence of human Cat L (P07711 114-333): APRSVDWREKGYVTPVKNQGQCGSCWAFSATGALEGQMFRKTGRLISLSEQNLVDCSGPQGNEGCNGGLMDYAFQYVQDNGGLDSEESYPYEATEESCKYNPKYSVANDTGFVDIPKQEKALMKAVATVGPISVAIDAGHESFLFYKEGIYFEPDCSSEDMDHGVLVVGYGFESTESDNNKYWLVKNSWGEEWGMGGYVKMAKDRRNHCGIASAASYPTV

Take `N#CC1(NC(=O)[C@@H]2C[C@@H](S(=O)(=O)c3ccccc3F)CN2C(=O)C2(c3ncc(Cl)cc3F)CC2)CC1` [Example 42, (2S,4R)-1-[1-(5-Chloro-3-fluoro-pyridin-2-yl)-cyclopropanecarbonyl]-4-(2-fluoro-benzenesulfonyl)-pyrrolidine-2-carboxylic acid (1-cyano-cyclopropyl)-amide]: the IC50 against human Cathepsin S is 0.7 nM; against human Cat L, 31 nM.

Turning to `COc1ccc(S(=O)(=O)[C@@H]2C[C@@H](C(=O)NC3(C#N)CC3)N(C(=O)C3(c4ccc(Cl)cn4)CC3)C2)c(Cl)c1` [Example 1, (2S,4R)-4-(2-Chloro-4-methoxy-benzenesulfonyl)-1-[1-(5-chloro-pyridin-2-yl)-cyclopropanecarbonyl]-pyrrolidine-2-carboxylic acid (1-cyano-cyclopropyl)-amide], the results for the concentration for half-maximal inhibition (IC50) against human Cathepsin S and at human Cat L were 0.606 nM and 410 nM, respectively.

Take `N#CC1(NC(=O)[C@@H]2C[C@@H](S(=O)(=O)c3ccc(Cl)cn3)CN2C(=O)C2(c3ncc(Cl)cc3F)CC2)CC1` [Example 22, (2S,4R)-1-[1-(5-Chloro-3-fluoro-pyridin-2-yl)-cyclopropanecarbonyl]-4-(5-chloropyridine-2-sulfonyl)-pyrrolidine-2-carboxylic acid (1-cyano-cyclopropyl)-amide]: the IC50 is 3 nM on human Cathepsin S and 1970 nM against human Cat L.

For `N#CC1(NC(=O)[C@@H]2C[C@@H](S(=O)(=O)c3ccccc3Cl)CN2C(=O)C2(c3ncc(Br)cc3F)CC2)CC1` [Example 8, (2S,4R)-1-[1-(5-Bromo-3-fluoro-pyridin-2-yl)-cyclopropanecarbonyl]-4-(2-chloro-benzenesulfonyl)-pyrrolidine-2-carboxylic acid (1-cyano-cyclopropyl)-amide], the IC50 against human Cathepsin S came out at 0.438 nM; against human Cat L it was 19.2 nM.

As for `N#CC1(NC(=O)[C@@H]2C[C@@H](S(=O)(=O)c3ccccc3-n3cccn3)CN2C(=O)C2(c3ncc(I)cc3F)CC2)CC1` [Example 43, (2S,4R)-1-[1-(3-Fluoro-5-iodo-pyridin-2-yl)-cyclopropanecarbonyl]-4-(2-pyrazol-1-yl-benzenesulfonyl)-pyrrolidine-2-carboxylic acid (1-cyano-cyclopropyl)-amide], the IC50 was determined as 17 nM at human Cathepsin S and 90.6 nM against human Cat L.

In the case of `N#CC1(NC(=O)[C@@H]2C[C@H](S(=O)(=O)c3ccc(F)cc3Cl)CN2C(=O)C2(c3ncc(Cl)cc3F)CC2)CC1` [Example 15, (2S,4S)-4-(2-Chloro-4-fluoro-benzenesulfonyl)-1-[1-(5-chloro-3-fluoro-pyridin-2-yl)-cyclopropanecarbonyl]-pyrrolidine-2-carboxylic acid (1-cyano-cyclopropyl)-amide], the IC50 was 11.1 nM on human Cathepsin S and 1680 nM against human Cat L.
